We go through 14 compounds from ChEMBL document CHEMBL2146447, “Synthesis and antimicrobial activity of amido linked pyrrolyl and pyrazolyl-oxazoles, thiazoles and imidazoles” (2011).

Active and inactive are the calls of the source. The calls are words filed in the database; no cut-off is given here.

What all share (assay type): functional
In experiment [1] the test system is Staphylococcus aureus. Description: Antibacterial activity against Staphylococcus aureus assessed at 50 ug after 24 hrs by agar well diffusion method. Particulars: for zone of inhibition at 50 µg/disc: read-out: DIZ.
Experiment [2] concerns Staphylococcus aureus. The experiment can be described thus: Antibacterial activity against Staphylococcus aureus at 100 ug after 24 hrs by agar well diffusion method. Conditions: for zone of inhibition at 100 µg/disc: read-out: DIZ.
In experiment [3] the test system is Bacillus subtilis. The experiment can be described thus: Antibacterial activity against Bacillus subtilis at 50 ug after 24 hrs by agar well diffusion method. Conditions: for zone of inhibition at 50 µg/disc: read-out: DIZ. (A growth-free zone around the sample is the usual read-out of agar diffusion tests.)
In experiment [4] the test system is Bacillus subtilis. The experiment can be described thus: Antibacterial activity against Bacillus subtilis at 100 ug after 24 hrs by agar well diffusion method. Conditions: for zone of inhibition at 100 µg/disc: read-out: DIZ.
The subject of experiment [5] is Pseudomonas aeruginosa. Description: Antibacterial activity against Pseudomonas aeruginosa at 50 ug after 24 hrs by agar well diffusion method. Particulars: for zone of inhibition at 50 µg/disc: read-out: DIZ.
Experiment [6] concerns Pseudomonas aeruginosa. The experiment can be described thus: Antibacterial activity against Pseudomonas aeruginosa at 100 ug after 24 hrs by agar well diffusion method. Conditions: for zone of inhibition at 100 µg/disc: read-out: DIZ.
Experiment [7] relates to Klebsiella pneumoniae. The experiment can be described thus: Antibacterial activity against Klebsiella pneumoniae at 50 ug after 24 hrs by agar well diffusion method. Conditions: for zone of inhibition at 50 µg/disc: read-out: DIZ.
The subject of experiment [8] is Klebsiella pneumoniae. The experiment can be described thus: Antibacterial activity against Klebsiella pneumoniae at 100 ug after 24 hrs by agar well diffusion method. Conditions: for zone of inhibition at 100 µg/disc: read-out: DIZ.
Experiment [9] has as its system Aspergillus niger. The experiment can be described thus: Antifungal activity against Aspergillus niger at 50 ug after 48 hrs by agar well diffusion method. Particulars: for zone of inhibition at 50 µg/disc: read-out: DIZ.
The test system of experiment [10] is Aspergillus niger. Description: Antifungal activity against Aspergillus niger at 100 ug after 48 hrs by agar well diffusion method. Particulars: for zone of inhibition at 100 µg/disc: read-out: DIZ.
Experiment [11] concerns Penicillium chrysogenum. The experiment can be described thus: Antifungal activity against Penicillium chrysogenum at 50 ug after 48 hrs by agar well diffusion method. Conditions: for zone of inhibition at 50 µg/disc: read-out: DIZ.
Experiment [12] has as its system Penicillium chrysogenum. The experiment can be described thus: Antifungal activity against Penicillium chrysogenum at 100 ug after 48 hrs by agar well diffusion method. Particulars: for zone of inhibition at 100 µg/disc: read-out: DIZ.

Turning to `O=C(Nc1nc(-c2ccccc2)cs1)c1n[nH]cc1-c1ccccc1`, the zone of inhibition at 50 µg/disc in the experiment with Staphylococcus aureus [1] amounted to 9 mm; in the experiment on Bacillus subtilis [3], 12 mm; in the experiment on Pseudomonas aeruginosa [5] it was 9 mm; in the experiment on Klebsiella pneumoniae [7], 14 mm; with Aspergillus niger [9], 9 mm; with Penicillium chrysogenum [11], 11 mm. Further, the zone of inhibition at 100 µg/disc with Staphylococcus aureus [2] amounted to 12 mm; in the experiment on Bacillus subtilis [4] it was 14 mm; with Pseudomonas aeruginosa [6] it was 11 mm; with Klebsiella pneumoniae [8], 16 mm; in the experiment on Aspergillus niger [10], 12 mm; in the experiment on Penicillium chrysogenum [12], 14 mm.
With `O=C(Nc1nc(-c2ccccc2)co1)c1c[nH]cc1-c1ccccc1`, the zone of inhibition at 50 µg/disc with Staphylococcus aureus [1] was 12 mm; in the experiment on Bacillus subtilis [3], 13 mm. In addition, the zone of inhibition at 100 µg/disc in the experiment on Staphylococcus aureus [2] came out at 14 mm; in the experiment with Bacillus subtilis [4] it was 15 mm. Further, the “diameter of the inhibition zone (DIZ)” value in the experiment on Pseudomonas aeruginosa [5], in the experiment with Pseudomonas aeruginosa [6], in the experiment with Klebsiella pneumoniae [7], in the experiment on Klebsiella pneumoniae [8], in the experiment with Aspergillus niger [9] and in the experiment on Aspergillus niger [10] was “inactive” in each case. Also, the “diameter of the inhibition zone (DIZ)” value with Penicillium chrysogenum [11] and in the experiment with Penicillium chrysogenum [12] was “inactive” in each case.
On to `Cc1ccc(-c2c[nH]c(NC(=O)c3c[nH]cc3-c3ccccc3)n2)cc1`, for which the zone of inhibition at 50 µg/disc in the experiment with Staphylococcus aureus [1] was 14 mm; with Bacillus subtilis [3], 17 mm; with Pseudomonas aeruginosa [5], 13 mm; with Klebsiella pneumoniae [7] it was 19 mm; in the experiment with Aspergillus niger [9] it was 14 mm; with Penicillium chrysogenum [11], 16 mm. In addition, the zone of inhibition at 100 µg/disc in the experiment with Staphylococcus aureus [2] is 16 mm; in the experiment with Bacillus subtilis [4] it was 19 mm; in the experiment with Pseudomonas aeruginosa [6] it was 14 mm; with Klebsiella pneumoniae [8], 21 mm; with Aspergillus niger [10], 17 mm; in the experiment on Penicillium chrysogenum [12] it was 19 mm.
Consider `O=C(Nc1nc(-c2ccc(Cl)cc2)cs1)c1n[nH]cc1-c1ccccc1`, for which the zone of inhibition at 50 µg/disc was found to be 27 mm in the experiment with Staphylococcus aureus [1]; 28 mm in the experiment with Bacillus subtilis [3]; 24 mm with Pseudomonas aeruginosa [5]; 30 mm with Klebsiella pneumoniae [7]; 30 mm in the experiment on Aspergillus niger [9]; 31 mm in the experiment with Penicillium chrysogenum [11]. Moreover, the zone of inhibition at 100 µg/disc with Staphylococcus aureus [2] was 29 mm; in the experiment with Bacillus subtilis [4] it was 31 mm; with Pseudomonas aeruginosa [6] it was 26 mm; in the experiment with Klebsiella pneumoniae [8] it was 33 mm; in the experiment with Aspergillus niger [10], 32 mm; in the experiment with Penicillium chrysogenum [12] it was 34 mm.
For `Cc1ccc(-c2c[nH]c(NC(=O)C3=NNCC3c3ccccc3)n2)cc1` (stereo not drawn), the zone of inhibition at 50 µg/disc in the experiment on Staphylococcus aureus [1] came out at 11 mm; in the experiment with Bacillus subtilis [3] it was 14 mm; in the experiment on Pseudomonas aeruginosa [5] it was 11 mm; in the experiment on Klebsiella pneumoniae [7] it was 16 mm; in the experiment with Aspergillus niger [9] it was 11 mm; in the experiment with Penicillium chrysogenum [11], 13 mm. Moreover, the zone of inhibition at 100 µg/disc in the experiment with Staphylococcus aureus [2] came out at 13 mm; in the experiment with Bacillus subtilis [4], 16 mm; in the experiment on Pseudomonas aeruginosa [6], 13 mm; in the experiment with Klebsiella pneumoniae [8] it was 18 mm; in the experiment on Aspergillus niger [10], 14 mm; in the experiment with Penicillium chrysogenum [12], 16 mm.
`O=C(Nc1nc(-c2ccccc2)c[nH]1)c1c[nH]cc1-c1ccccc1`: the zone of inhibition at 50 µg/disc was found to be 15 mm with Staphylococcus aureus [1]; 18 mm with Bacillus subtilis [3]; 14 mm with Pseudomonas aeruginosa [5]; 20 mm in the experiment with Klebsiella pneumoniae [7]; 16 mm with Aspergillus niger [9]; 17 mm in the experiment on Penicillium chrysogenum [11]. Also, the zone of inhibition at 100 µg/disc in the experiment with Staphylococcus aureus [2] came out at 17 mm; in the experiment on Bacillus subtilis [4], 20 mm; with Pseudomonas aeruginosa [6] it was 15 mm; in the experiment on Klebsiella pneumoniae [8], 22 mm; in the experiment on Aspergillus niger [10], 18 mm; in the experiment on Penicillium chrysogenum [12], 20 mm.
Take `O=C(Nc1nc(-c2ccccc2)c[nH]1)C1=NNCC1c1ccccc1` (stereo not drawn): the zone of inhibition at 50 µg/disc in the experiment with Staphylococcus aureus [1] was found to be 12 mm; in the experiment on Bacillus subtilis [3], 15 mm; in the experiment on Pseudomonas aeruginosa [5] it was 12 mm; in the experiment on Klebsiella pneumoniae [7], 17 mm; in the experiment with Aspergillus niger [9] it was 13 mm; with Penicillium chrysogenum [11], 14 mm. The zone of inhibition at 100 µg/disc with Staphylococcus aureus [2] was 14 mm; in the experiment with Bacillus subtilis [4], 17 mm; with Pseudomonas aeruginosa [6], 14 mm; in the experiment on Klebsiella pneumoniae [8] it was 19 mm; with Aspergillus niger [10] it was 15 mm; in the experiment on Penicillium chrysogenum [12], 17 mm.
For the compound `Cc1ccc(-c2csc(NC(=O)c3n[nH]cc3-c3ccccc3)n2)cc1`, the zone of inhibition at 50 µg/disc stood at 9 mm in the experiment on Staphylococcus aureus [1]; 10 mm in the experiment with Bacillus subtilis [3]; 8 mm with Pseudomonas aeruginosa [5]; 13 mm with Klebsiella pneumoniae [7]; 8 mm with Aspergillus niger [9]; 10 mm in the experiment on Penicillium chrysogenum [11]. Also, the zone of inhibition at 100 µg/disc was 11 mm in the experiment on Staphylococcus aureus [2]; 13 mm in the experiment on Bacillus subtilis [4]; 11 mm in the experiment on Pseudomonas aeruginosa [6]; 15 mm in the experiment on Klebsiella pneumoniae [8]; 11 mm in the experiment on Aspergillus niger [10]; 13 mm in the experiment with Penicillium chrysogenum [12].
For the compound `O=C(/C=C/c1ccccc1)Nc1nc(-c2ccccc2)c[nH]1`, the zone of inhibition at 50 µg/disc in the experiment with Staphylococcus aureus [1] turned out to be 19 mm; in the experiment on Bacillus subtilis [3] it was 22 mm; with Pseudomonas aeruginosa [5], 16 mm; with Klebsiella pneumoniae [7], 24 mm; in the experiment with Aspergillus niger [9], 19 mm; with Penicillium chrysogenum [11] it was 21 mm. Further, the zone of inhibition at 100 µg/disc with Staphylococcus aureus [2] is 21 mm; in the experiment with Bacillus subtilis [4], 24 mm; with Pseudomonas aeruginosa [6], 17 mm; in the experiment on Klebsiella pneumoniae [8] it was 26 mm; in the experiment on Aspergillus niger [10], 22 mm; in the experiment with Penicillium chrysogenum [12], 24 mm.
On to `Cc1ccc(-c2coc(NC(=O)C3=NNCC3c3ccccc3)n2)cc1` (stereo not drawn), for which the “diameter of the inhibition zone (DIZ)” value with Staphylococcus aureus [1], in the experiment on Staphylococcus aureus [2], with Bacillus subtilis [3], in the experiment on Bacillus subtilis [4], in the experiment with Pseudomonas aeruginosa [5] and with Pseudomonas aeruginosa [6] was “inactive” throughout. Also, the “diameter of the inhibition zone (DIZ)” value in the experiment on Klebsiella pneumoniae [7], in the experiment on Klebsiella pneumoniae [8], in the experiment with Aspergillus niger [9], in the experiment with Aspergillus niger [10], in the experiment on Penicillium chrysogenum [11] and in the experiment with Penicillium chrysogenum [12] was “inactive” in each case.
As for `O=C(Nc1nc(-c2ccccc2)cs1)C1=NNCC1c1ccccc1` (stereo not drawn), the figures for the zone of inhibition at 50 µg/disc with Staphylococcus aureus [1] and in the experiment on Bacillus subtilis [3] were 13 mm and 14 mm, respectively. Also, the zone of inhibition at 100 µg/disc in the experiment with Staphylococcus aureus [2] was 15 mm; in the experiment with Bacillus subtilis [4], 16 mm. Also, the “diameter of the inhibition zone (DIZ)” value in the experiment on Pseudomonas aeruginosa [5], in the experiment with Pseudomonas aeruginosa [6], in the experiment on Klebsiella pneumoniae [7], with Klebsiella pneumoniae [8], in the experiment with Aspergillus niger [9] and in the experiment on Aspergillus niger [10] was “inactive” each time. Besides, the “diameter of the inhibition zone (DIZ)” value with Penicillium chrysogenum [11] and in the experiment on Penicillium chrysogenum [12] was “inactive” throughout.
For `O=C(Nc1nc(-c2ccc(Cl)cc2)co1)c1c[nH]cc1-c1ccccc1`, the zone of inhibition at 50 µg/disc is 18 mm in the experiment with Staphylococcus aureus [1]; 17 mm with Bacillus subtilis [3]; 18 mm with Pseudomonas aeruginosa [5]; 23 mm in the experiment on Klebsiella pneumoniae [7]; 24 mm in the experiment on Aspergillus niger [9]; 25 mm with Penicillium chrysogenum [11]. Also, the zone of inhibition at 100 µg/disc worked out at 20 mm with Staphylococcus aureus [2]; 21 mm in the experiment with Bacillus subtilis [4]; 20 mm with Pseudomonas aeruginosa [6]; 25 mm in the experiment on Klebsiella pneumoniae [8]; 26 mm in the experiment with Aspergillus niger [10]; 28 mm with Penicillium chrysogenum [12].
Consider `O=C(Nc1nc(-c2ccc(Cl)cc2)co1)c1n[nH]cc1-c1ccccc1`, for which the zone of inhibition at 50 µg/disc in the experiment with Staphylococcus aureus [1] came to 20 mm; in the experiment with Bacillus subtilis [3], 21 mm; in the experiment on Pseudomonas aeruginosa [5], 19 mm; in the experiment on Klebsiella pneumoniae [7], 23 mm; in the experiment with Aspergillus niger [9], 24 mm; in the experiment on Penicillium chrysogenum [11], 26 mm. The zone of inhibition at 100 µg/disc with Staphylococcus aureus [2] turned out to be 23 mm; in the experiment with Bacillus subtilis [4], 22 mm; in the experiment with Pseudomonas aeruginosa [6] it was 21 mm; in the experiment on Klebsiella pneumoniae [8] it was 24 mm; with Aspergillus niger [10], 27 mm; in the experiment with Penicillium chrysogenum [12] it was 29 mm.
`Cc1ccc(-c2csc(NC(=O)c3c[nH]cc3-c3ccccc3)n2)cc1`: the zone of inhibition at 50 µg/disc came out at 16 mm with Staphylococcus aureus [1]; 19 mm with Bacillus subtilis [3]; 13 mm in the experiment on Pseudomonas aeruginosa [5]; 21 mm in the experiment on Klebsiella pneumoniae [7]; 18 mm in the experiment on Aspergillus niger [9]; 18 mm with Penicillium chrysogenum [11]. In addition, the zone of inhibition at 100 µg/disc turned out to be 18 mm with Staphylococcus aureus [2]; 21 mm in the experiment on Bacillus subtilis [4]; 15 mm in the experiment with Pseudomonas aeruginosa [6]; 23 mm in the experiment on Klebsiella pneumoniae [8]; 19 mm with Aspergillus niger [10]; 21 mm in the experiment on Penicillium chrysogenum [12].
